The source of these data is patent US5869500A, “Pyridone compounds useful in treating Alzheimer's disease” (Hoffmann-La Roche Inc., priority 1996, dated 1999).

Counter-ions that a name gives are not always drawn.

For orientation: IC50 means the concentration that inhibits the measured activity by half.

The subject of experiment [1] is Aβ production in HEK cells over-expressing mutated β-APP (SFAD). Briefly: Aβ production inhibition, sandwich-ELISA in HEK cells, over-expressed mutated β-APP (SE-SFAD). The class given is cell-based, human. Particulars: for IC50: based on the respective plateau of maximum inhibition; for Emax: read-out: SE-SFAD max. inhibition %. The procedure, abridged:
(§1)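 HEK cells expressing recombinant human wild-type or mutated (SFAD) β-APP treated with compound for 24 to 48 hours at 37° C, 10% CO2. IC50 based on plateau of maximum inhibition.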
(In general: ELISA stands for enzyme-linked immunosorbent assay.)

Experiment [2] concerns Aβ production in HEK cells over-expressing Wild type β-APP. Briefly: Aβ production inhibition, sandwich-ELISA in HEK cells which over-express Wild type β-APP (SE-WT). Particulars: Homo sapiens; for IC50: HEK293, based on the respective plateau of maximum inhibition; for Emax: HEK293, maximum inhibition plateau, read-out: SE-WT max. inhibition %. The class given is cell-based, human. A digest of the protocol:
as §1

Where [3] appears, read: Homo sapiens, HEK293, HEK cells.
[4] abbreviates: Homo sapiens, HEK293, HEK cells, maximum inhibition plateau.

Consider `COCC1CCCCN1C(=O)c1cc(-c2ccccc2)c(=O)n2ccc3ccsc3c12` (stereo not drawn) [Compound 50, 10-(2-Methoxymethyl-piperidine-1-carbonyl)-8-phenyl-thieno[2,3-a]-quinolizin-7-one], for which the IC50 in experiment [1] (setting [3]) amounted to 5.5 µM; in experiment [2], 3.6 µM. The Emax in experiment [1] (setting [4]) and in experiment [2] was 40% each time.
On to `CC(C)OC1CCN(C(=O)c2cc(-c3ccccc3)c(=O)n3ccc4ccsc4c23)C1` (stereo not drawn) [Compound 51, 10-(3-Isopropoxy-pyrrolidine-1-carbonyl)-8-phenyl-thieno[2,3-a]-quinolizin-7-one], for which the IC50 in experiment [1] (setting [3]) worked out at 60 µM; in experiment [2], 24 µM. Moreover, the Emax in experiment [1] (setting [4]) and in experiment [2] was 100% in each case.
Turning to `O=C(c1cc(-c2ccccc2)c(=O)n2ccc3ccsc3c12)n1ccnc1` [Compound 52, 10-(Imidazole-1-carbonyl)-8-phenyl-thieno[2,3-a]quinolizin-7-one], the IC50 is 5 µM in experiment [1] (setting [3]) and 12 µM in experiment [2]. Moreover, the Emax in experiment [1] (setting [4]) came to 25%; in experiment [2] it was 45%.
As for `CN(C)CCOC(=O)c1cc(-c2ccccc2)c(=O)n2ccc3ccsc3c12` [Compound 53, 2-Dimethylamino-ethyl 7-oxo-8-phenyl-7H-thieno[2,3-a]quinolizine-10-carboxylate hydrochloride], the results for the half-inhibitory concentration (IC50) in experiment [1] (setting [3]) and in experiment [2] were 9.5 µM and 8 µM, respectively. In addition, the Emax in experiment [1] (setting [4]) was 80%; in experiment [2], 100%.
For `CON(C)C(=O)c1cc(-c2ccccc2)c(=O)n2ccc3ccsc3c12` [Compound 54, 7--Oxo-8-phenyl-7H-thieno[2,3-a]quinolizine-10-carboxylic acid methoxy-methyl-amide], the values for the IC50 in experiment [1] (setting [3]) and in experiment [2] were 6 µM and 3 µM, respectively. Further, the Emax in experiment [1] (setting [4]) was 30%; in experiment [2], 40%.
With `O=C(OCc1cccs1)c1cc(-c2ccccc2)c(=O)n2ccc3ccsc3c12` [Compound 55, Thiophen-2-yl-methyl 7-oxo-8-phenyl-7H-thieno[2,3-a]quinolizine-10-carboxylate], the values for the IC50 in experiment [1] (setting [3]) and in experiment [2] were 4 µM and 5 µM, respectively. In addition, the Emax in experiment [1] (setting [4]) is 50%; in experiment [2], 60%.
Turning to `CC(=O)c1cc(-c2ccccc2)c(=O)n2ccc3ccsc3c12` [Compound 58, 10-Acetyl-8-phenyl-thieno[2,3-a]quinolizine-7-one], the IC50 was found to be 1 µM in experiment [1] (setting [3]) and 0.2 µM in experiment [2]. For the same molecule, the Emax amounted to 60% in experiment [1] (setting [4]) and 40% in experiment [2].
For `CN(C)CC=CCOC(=O)c1cc(-c2ccccc2)c(=O)n2ccc3ccsc3c12` [Compound 59, 4-Dimethylamino-but-2-enyl 7-oxo-8-phenyl-7H-thieno[2,3-a]-quinolizine-10-carboxylate methanesulphonate] the same measures were 5 µM, 7 µM, 100% and 100%.
Take `O=c1c(-c2ccccc2)cc(-c2nc(C3CC3)no2)c2c3sccc3ccn12` [Compound 62, 10-(3-Cyclopropyl-[1,2,4]oxadiazol-5-yl)-8-phenyl-thieno[2,3-a]-quinolizin-7-one]: the IC50 is 0.5 µM in experiment [1] (setting [3]) and 2.7 µM in experiment [2]. Also, the figures for the Emax in experiment [1] (setting [4]) and in experiment [2] were 65% and 80%, respectively.
For `COC(=O)c1cc(-c2ccccc2)c(=O)n2c1-c1[nH]c3ccccc3c1CC2` [Compound 63, Methyl 4-oxo-3-phenyl-4,6,7,12-tetrahydro-indolo[2,3-a]quinolizine-1-carboxylate] the same measures were 1 µM, 0.6 µM, 65% and 45%.
In the case of `COCCN(CCOC)C(=O)c1cc(-c2ccc(OCc3ccccc3)cc2)c(=O)n2ccc3ccsc3c12` [Compound 67, 8-(4-Benzyloxy-phenyl)-7-oxo-7H-thieno[2,3-a]quinolizine-10-carboxylic acid bis-(2-methoxy-ethyl)-amide], the figures for the IC50 in experiment [1] (setting [3]) and in experiment [2] were 0.8 µM and 0.6 µM, respectively. Moreover, the Emax is 70% in experiment [1] (setting [4]) and 80% in experiment [2].
For `COCCN(C(=O)c1cc(-c2ccc(OCc3ccccc3)cc2)c(=O)n2ccc3cc(Br)sc3c12)c1ccccc1` [Compound 77, 8-(4-Benzyloxy-phenyl)-2-bromo-7-oxo-7H-thieno[2,3-a]quinolizine-10-carboxylic acid (2-methoxy-ethyl)-phenyl-amide], in that order: 0.2 µM, 0.2 µM, 80% and 100%.
In the case of `COCCN(C(=O)c1cc(-c2ccc(OCc3ccccc3)cc2)c(=O)n2ccc3cc(I)sc3c12)c1ccccc1` [Compound 81, 8-(4-Benzyloxy-phenyl)-2-iodo-7-oxo-7H-thieno[2,3-a]quinolizine-10-carboxylic acid (2-methoxy-ethyl)-phenyl-amide], the values for the IC50 in experiment [1] (setting [3]) and in experiment [2] were less than 1 µM and 1.2 µM, respectively. Besides, the Emax was 50% in experiment [1] (setting [4]) and 100% in experiment [2].
As for `COC(=O)c1cc(-c2ccc(C(C)(C)C)cc2)c(=O)n2ccc3ccsc3c12` [Compound 106, Methyl 8-(4-tert-butyl-phenyl)-7-oxo-7H-thieno[2,3-a]quinolizine-10-carboxylate], the results for the IC50 in experiment [1] (setting [3]) and in experiment [2] were 2.3 µM and 0.8 µM, respectively. In addition, the Emax stood at 85% in experiment [1] (setting [4]) and 95% in experiment [2].
Turning to `CCCN(CCOC)C(=O)c1cc(-c2ccc(C(C)(C)C)cc2)c(=O)n2ccc3ccsc3c12` [Compound 108, 8-(4-tert-Butyl-phenyl)-7-oxo-7H-thieno[2,3-a]quinolizine-10-carboxylicacid (2-methoxy-ethyl)-propyl-amide], the 50% inhibitory concentration (IC50) was 1.4 µM in experiment [1] (setting [3]) and 1 µM in experiment [2]. Also, the Emax in experiment [1] (setting [4]) and in experiment [2] was 100% each time.
In the case of `COCCN(CCOC)C(=O)c1cc(-c2ccc(C(C)(C)C)cc2)c(=O)n2ccc3ccsc3c12` [Compound 109, 8-(4-tert-Butyl-phenyl)-7-oxo-7H-thieno[2,3-a]quinolizine-10-carboxylicacid bis-(2-methoxy-ethyl)-amide], the IC50 in experiment [1] (setting [3]) was determined as 7.7 µM; in experiment [2] it was 0.8 µM. The Emax in experiment [1] (setting [4]) and in experiment [2] was 100% in each case.
Consider `COc1cccc(-c2cc(C(=O)NCc3ccccc3)c3c4sccc4ccn3c2=O)c1` [Compound 116, 8-(3-Methoxy-phenyl)-7-oxo-7H-thieno[2,3-a]quinolizine-10-carboxylic acid benzyl-amide], for which the IC50 is 0.8 µM in experiment [1] (setting [3]) and 1 µM in experiment [2]. Besides, the Emax was 100% in experiment [1] (setting [4]) and 60 to 80% in experiment [2].
In turn, `COC(=O)c1cc(-c2ccccc2OC)c(=O)n2ccc3ccsc3c12` [Compound 129, Methyl 8-(2-methoxy-phenyl)-7-oxo-7H-thieno[2,3-a]quinolizine-10-carboxylate] had an IC50 in experiment [1] (HEK cells) of 2.8 µM. The “SE-SFAD max. inhibition %” value in experiment [1] (HEK cells, maximum inhibition plateau) is listed as 75%. In experiment [2], 1.5 µM corresponded to half-maximal inhibition (IC50) and the Emax was found to be 85%.
